What was measured:
[1] = molecular target: T1, Macrophage migration inhibitory factor (Homo sapiens, UniProt P14174); assay: Inhibition of dopachrome tautomerase activity of MIF in human THP1 cells; format: cell-based, THP-1
T1 sequence (P14174 whole entry): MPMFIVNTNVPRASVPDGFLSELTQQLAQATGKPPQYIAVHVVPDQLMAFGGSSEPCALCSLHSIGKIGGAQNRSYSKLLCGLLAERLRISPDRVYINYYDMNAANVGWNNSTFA

[2] = molecular target: T1, Macrophage migration inhibitory factor; assay: Inhibition of dopachrome tautomerase activity of human recombinant MIF
[3] = molecular target: T1, Macrophage migration inhibitory factor; assay: Inhibition of spontaneous secretion/release/recognition of MIF from freshly isolated human PBMC by ELISA
[4] = molecular target: T2, Macrophage migration inhibitory factor (Homo sapiens) (UniProt P14174); assay: Inhibition of MIF-induced IL6 production in human PBMC at 100 uM by ELISA
T2 sequence (whole entry): T1 sequence (P14174 whole entry)

[5] = molecular target: T2, Macrophage migration inhibitory factor (Homo sapiens); assay: Inhibition of MIF-induced TNFalpha production in human PBMC at 100 uM by ELISA
[6] = molecular target: T2, Macrophage migration inhibitory factor (Homo sapiens); assay: Inhibition of MIF-induced IL1-beta production in human PBMC at 100 uM by ELISA

Row | SMILES | IC50 [1] | IC50 [2] | IC50 [3] | inhibition [4] | inhibition [5] | inhibition [6] | IC50 ([3]; read-out: IC50)
1 | CC(C)(C)C(=O)NCC1CC(c2ccc(O)c(F)c2)=NO1 (centres undefined) | > 100 µM | – | – | – | – | – | –
2 | Oc1ccc(C2=NOC(c3noc(C(F)(F)F)n3)C2)cc1F (centres undefined) | 60 µM | > 100 µM | – | – | – | – | –
3 | CC(C)CC(=O)NCC1CC(c2ccc(O)c(F)c2)=NO1 (centres undefined) | > 100 µM | – | – | – | – | – | –
4 | COC(=O)CCc1nc(C2CC(c3ccc(O)c(F)c3)=NO2)no1 (centres undefined) | 50 µM | > 100 µM | Not Active | – | – | – | –
5 | COc1ccc(C2=NOC(c3noc(C)n3)C2)cc1F (centres undefined) | > 100 µM | – | – | – | – | – | –
6 | COc1ccc(C2=NOC(c3noc(-c4ccccc4N(C)C(=O)O)n3)C2)cc1F (centres undefined) | > 100 µM | – | – | – | – | – | –
7 | CN(C)C(=O)NCC1CC(c2ccc(O)c(F)c2)=NO1 (centres undefined) | > 100 µM | – | – | – | – | – | –
8 | Oc1ccc(C2=NOC(Cc3noc(C(F)(F)F)n3)C2)cc1F (centres undefined) | – | – | – | 33% | 34% | 46% | –
9 | O=C(NCCC1CC(c2ccc(O)c(F)c2)=NO1)C(F)(F)F (centres undefined) | 49 µM | > 100 µM | – | 49% | 53% | 66% | 15 µM
10 | COc1ccc(C2=NOC(Cc3noc(C(F)(F)F)n3)C2)cc1F (centres undefined) | > 100 µM | 55 µM | – | – | – | – | –
11 | Cc1nc(C2CC(c3ccc(O)c(F)c3)=NO2)no1 (centres undefined) | 60 µM | > 100 µM | – | – | – | – | –
12 | COC(=O)CC1CC(c2ccc(O)cc2)=NO1 (centres undefined) | – | – | – | 0% | 25% | 25% | –
13 | COc1ccc(C2=NOC(c3noc(C(F)(F)F)n3)C2)cc1F (centres undefined) | 100 µM | 95 µM | – | – | – | – | –

Further lines, results first:

Row | IC50 [1] | IC50 [2] | IC50 [3] | inhibition [4] | inhibition [5] | inhibition [6] | IC50 ([3]; read-out: IC50) | SMILES
14 | 19 µM | > 100 µM | Not Active | – | – | – | – | Oc1ccc(C2=NOC(c3noc(-c4cccc(O)c4O)n3)C2)cc1F (centres undefined)
15 | 0.5 µM | 0.8 µM | – | 22% | 31% | 22% | 1.5 µM | O=C1c2ccccc2C(=O)N1CCC1CC(c2ccc(O)c(F)c2)=NO1 (centres undefined)
16 | 15 µM | 20 µM | – | 54% | 56% | 52% | 10 µM | O=C(NCCC1CC(c2ccc(O)c(F)c2)=NO1)c1ccc(F)cc1 (centres undefined)
17 | 15 µM | 50 µM | – | 14% | 39% | 27% | 20 µM | O=C1CCC(=O)N1CCC1CC(c2ccc(O)c(F)c2)=NO1 (centres undefined)
18 | 25 µM | > 100 µM | Not Active | – | – | – | – | O=C(CCc1nc(C2CC(c3ccc(O)c(F)c3)=NO2)no1)NC1CCCCC1 (centres undefined)
19 | 29 µM | 36 µM | Not Active | – | – | – | – | O=C1c2ccccc2C(=O)N1CC1CC(c2ccc(O)c(F)c2)=NO1 (centres undefined)
20 | 28 µM | 22 µM | – | 39% | 40% | 50% | 15 µM | CC(C)(C)C(=O)NCCC1CC(c2ccc(O)c(F)c2)=NO1 (centres undefined)
21 | 2 µM | 7 µM | Not Active | – | – | – | – | O=C1c2ccccc2C(=O)N1CCCC1CC(c2ccc(O)c(F)c2)=NO1 (centres undefined)
22 | 30 µM | 9.5 µM | Not Active | – | – | – | – | COc1ccc(C2=NOC(c3noc(CCC(=O)NC4CCCCC4)n3)C2)cc1F (centres undefined)
23 | 12 µM | > 100 µM | – | – | – | – | 60 µM | COc1ccc(C2=NOC(c3noc(CCC(=O)O)n3)C2)cc1F (centres undefined)
24 | 20 µM | 32 µM | Not Active | – | – | – | – | COc1ccc(C2=NOC(c3noc(-c4cccc(OC)c4OC)n3)C2)cc1F (centres undefined)
25 | 29 µM | 22 µM | – | 47% | 53% | 58% | 20 µM | CC(C)CC(=O)NCCC1CC(c2ccc(O)c(F)c2)=NO1 (centres undefined)

Source: ChEMBL document CHEMBL1154029, “Novel derivatives of ISO-1 as potent inhibitors of MIF biological function” (Bioorg Med Chem Lett, 2009)
